{"source": "patent US20120270238A1", "about": "“Peptides That Bind the Alpha-Fetoprotein (AFP) Receptor and Uses Thereof” (priority 2009, published 2012)", "molecules": {"B1": {"name": "Fragment 3, … (peptide)", "peptide": "HKDLCQAQGVALQTMKQEFLIN"}}, "key": {"[1]": {"tested_on": "cancer cell line that is known to have AFP receptors", "test": "Binding of FITC labelled peptide to cancer cells", "type": "cell-based", "conditions": "FITC at the N terminal; fluorescence; qualitative"}, "[2]": {"tested_on": "MCF-7 cells (human breast cancer cell line)", "test": "Uptake of FITC labelled peptide into MCF-7 cells", "type": "cell-based", "conditions": "FITC fluorescence; qualitative", "text": "FIGS. 10A and B show the results of this experiment. […] This experiment provides evidence that the peptides according to the present invention provide for intracellular delivery of bioactive agents to the interior of cells expressing AFPr, particularly cancer cells."}, "[3]": {"tested_on": "alpha-fetoprotein receptor present in MCF-7 cell extracts", "test": "Competitive ELISA with biotin labeled AFP on MCF-7 cell extract", "type": "binding, human", "conditions": "for inhibition (competition with AFP-biotin): constant AFP-biotin 0.5 μg/ml, plate coated with MCF-7 extract; for competition with biotin labeled AFP for the AFP receptor: qualitative, biotin labeled AFP 0.5 ug/ml", "description": "To see if the enzymatic digests were still biologically active, the enzymatic digests were used in a competitive based ELISA with whole AFP molecule labeled with biotin. The ability of the enzymatic digest dilutions to compete for the alpha-fetoprotein receptor present in MCF-7 cell extracts was determined using a constant 0.5 ug/ml of biotin labeled AFP. […] This fragment was run on a gradient tricine gel, transferred to a PVDF membrane and sent for N terminal sequencing. Results gave the amino acid (AA) sequence V-N-P-G . . . corresponding to AA 493 to 496 of Human AFP as published in Uniprot Data base (FIG. 2).\nA plate can be coated with an extract of a cancer cell line known to have AFP receptors (for example, MCF-7). The plate is coated at 100 ug/ml total protein concentration and the peptide to be tested and AFP biotin is mixed with an initial peptide concentration of 250 μg/ml and subsequent half dilutions made. […] (FIG. 3). This assay was repeated with subsequent peptides synthesized in order to determine the smallest amino acid chain that would compete along with other peptides not in this region of the AFP molecule as well as from a different species."}, "[4]": {"molecular_target": "alpha-fetoprotein receptor (AFP receptor) (human)", "test": "competition assay, plate coated with MCF-7 extract, AFP-biotin constant at 0.5 µg/ml"}}, "note": "No end group written: not given here. *: point of attachment. FITC = O=C1OC2(c3ccc(O)cc3Oc3cc(O)ccc32)c2ccc(NC(=S)*)cc21", "data": [{"molecule": "FITC labeled Fragment 4: Fragment 4 synthesized with FITC at the N terminal ({FITC}-LQTMKQEFLIN)", "values": [{"measurement": "binding to cancer cells", "setting": "[1]", "result": "demonstrated binding"}, {"measurement": "uptake into MCF-7 human breast cancer cells", "setting": "[2]", "result": "uptake"}]}, {"molecule": "HKDLCQAQGVALQTMKQEFLIN [Fragment 3, amino acids 534-555 of human AFP]", "values": [{"measurement": "inhibition (competition with AFP-biotin)", "setting": "[3]; peptide 7.8 μg/ml", "result": 50, "unit": "%"}, {"measurement": "inhibition (competition with AFP-biotin)", "setting": "[3]; peptide 250 μg/ml", "result": 85, "unit": "%"}, {"measurement": "competition with biotin labeled AFP for the AFP receptor", "setting": "[3]", "result": "found to compete"}]}, {"molecule": "KQEFLIN [amino acids 549-555 of human AFP]", "values": [{"measurement": "competition with biotin labeled AFP for the AFP receptor", "setting": "[3]", "result": "found to compete"}]}, {"molecule": "B1", "values": [{"measurement": "% inhibition at 7.8 µg/ml", "setting": "[4]", "result": 50, "unit": "%"}, {"measurement": "% inhibition at 250 µg/ml", "setting": "[4]", "result": 85, "unit": "%"}]}]}
